Measured values from patent publication US8853244B2, “Thiophene-carboxamides useful as inhibitors of protein kinases” (Vertex Pharmaceuticals Incorporated, priority 2006, dated 2014).

Target: T1, Plk1 (Homo sapiens, UniProt P53350)
T1 construct: in the presence of 15 nM Plk1 (A20-K338)
Assay: Plk1 inhibition assay (radioactive-phosphate incorporation)
Format: biochemical
Conditions: Ki(app)
Protocol: The compounds of the present invention are evaluated as inhibitors of human PLK kinase using the following assays.
Compounds were screened for their ability to inhibit Plk1 using a radioactive-phosphate incorporation assay. Assays were carried out in a mixture of 25 mM HEPES (pH 7.5), 10 mM MgCl2, and 1 mM DTT. Final substrate concentrations were 50 μM [γ-33P]ATP (136 mCi 33P ATP/mmol ATP, Amersham Pharmacia Biotech/Sigma Chemicals) and 10 μM peptide (SAM68 protein Δ332-443). Assays were carried out at 25° C. in the presence of 15 nM Plk1 (A20-K338). An assay stock buffer solution was prepared containing all of the reagents listed above, with the exception of ATP and the test compound of interest. 30 μL of the stock solution was placed in a 96 well plate followed by addition of 2 μL of DMSO stock containing serial dilutions of the test compound (typically starting from a final concentration of 10 μM with 2-fold serial dilutions) in duplicate (final DMSO concentration 5%). The plate was pre-incubated for 10 minutes at 25° C. and the reaction initiated by addition of 8 μL [γ-33P]ATP (final concentration 50 μM). […]
After removing mean background values for all of the data points, Ki(app) data were calculated from non-linear regression analysis of the initial rate data using the Prism software package (GraphPad Prism version 3.0cx for Macintosh, GraphPad Software, San Diego Calif., USA). […]

T1 sequence (P53350 20-338): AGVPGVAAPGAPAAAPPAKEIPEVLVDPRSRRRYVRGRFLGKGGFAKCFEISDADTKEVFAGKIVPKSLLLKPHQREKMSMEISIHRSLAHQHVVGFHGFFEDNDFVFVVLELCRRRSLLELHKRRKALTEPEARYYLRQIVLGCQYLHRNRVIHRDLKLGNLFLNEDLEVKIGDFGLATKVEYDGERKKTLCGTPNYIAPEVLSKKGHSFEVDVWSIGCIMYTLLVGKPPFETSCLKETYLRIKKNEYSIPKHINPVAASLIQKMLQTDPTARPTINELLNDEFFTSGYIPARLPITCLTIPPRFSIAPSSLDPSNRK

How did the Ki turn out when `CC(Oc1cc(-c2cc(-c3cccc(Cl)c3)cnc2N)sc1C(N)=O)c1ccccc1Cl` (stereo not shown) [I-3, 5-[2-Amino-5-(3-chloro-phenyl)-pyridin-3-yl]-3-[1-(2-chloro-phenyl)-ethoxy]-thiophene-2-carboxylic acid amide] was run?
The Ki was less than 10 nM.
